Measurements as given in paper PMC7587962, “Evaluation of Cytotoxicity and α-Glucosidase Inhibitory Activity of Amide and Polyamino-Derivatives of Lupane Triterpenoids” (Molecules, 2020).

Columns and labels:
[1] = tested on: LOX IMVI; test: NCI-60 SRB screen: melanoma LOX IMVI; type: cell-based, human
[2] = tested on: A549/ATCC; test: NCI-60 SRB screen: non-small cell lung cancer A549/ATCC; type: cell-based, human; details: A549/ATCC
[3] = tested on: HCT-116; test: NCI-60 SRB screen: colon cancer HCT-116; type: cell-based; details: Homo sapiens, 48 h, HCT-116
[4] = tested on: DU-145; test: NCI-60 SRB screen: prostate cancer DU-145; type: cell-based, human; details: DU-145
[5] = tested on: MDA-MB-231/ATCC; test: NCI-60 SRB screen: breast cancer MDA-MB-231/ATCC; type: cell-based; details: Homo sapiens, 48 h
[6] = tested on: Leukemia subpanel; test: NCI-60 screen, subpanel Leukemia
[7] = tested on: HT29; test: NCI-60 SRB screen: colon cancer HT29; type: cell-based; details: Homo sapiens, HT29
[8] = tested on: 786-0; test: NCI-60 SRB screen: renal cancer 786-0; type: cell-based, human; details: 786-0
[9] = tested on: M14; test: NCI-60 SRB screen: melanoma M14; type: cell-based, human; details: M14
[10] = tested on: BT-549; test: NCI-60 SRB screen: breast cancer BT-549; type: cell-based, human; details: BT-549
[11] = tested on: NCI-H23; test: NCI-60 SRB screen: non-small cell lung cancer NCI-H23; type: cell-based, human; details: NCI-H23
[12] = tested on: OVCAR-3; test: NCI-60 SRB screen: ovarian cancer OVCAR-3; type: cell-based, human; details: OVCAR-3
[13] = tested on: KM12; test: NCI-60 SRB screen: colon cancer KM12; type: cell-based, human; details: KM12
[14] = tested on: SF-295; test: NCI-60 SRB screen: CNS cancer SF-295; type: cell-based, human; details: SF-295
[15] = tested on: SN12C; test: NCI-60 SRB screen: renal cancer SN12C; type: cell-based, human
[16] = tested on: EKVX; test: NCI-60 SRB screen: non-small cell lung cancer EKVX; type: cell-based, human
[17] = tested on: SK-MEL-5; test: NCI-60 SRB screen: melanoma SK-MEL-5; type: cell-based, human; details: SK-MEL-5
[18] = tested on: UACC-62; test: NCI-60 SRB screen: melanoma UACC-62; type: cell-based, human; details: UACC-62
[19] = tested on: CCRF-CEM; test: NCI-60 SRB screen: leukemia CCRF-CEM; type: cell-based; details: Homo sapiens, 48 h
[20] = tested on: Renal Cancer subpanel; test: NCI-60 screen, subpanel Renal Cancer
[21] = tested on: NCI-H226; test: NCI-60 SRB screen: non-small cell lung cancer NCI-H226; type: cell-based, human; details: NCI-H226
[22] = tested on: CAKI-1; test: NCI-60 SRB screen: renal cancer CAKI-1; type: cell-based, human; details: CAKI-1
[23] = tested on: HS 578T; test: NCI-60 SRB screen: breast cancer HS 578T; type: cell-based, human; details: HS 578T
[24] = tested on: Prostate cancer subpanel; test: NCI-60 screen, subpanel Prostate cancer
[25] = tested on: UACC-257; test: NCI-60 SRB screen: melanoma UACC-257; type: cell-based, human; details: UACC-257
[26] = tested on: SNB-19; test: NCI-60 SRB screen: CNS cancer SNB-19; type: cell-based, human; details: SNB-19
[27] = tested on: U251; test: NCI-60 SRB screen: CNS cancer U251; type: cell-based; details: Homo sapiens, U251
[28] = tested on: OVCAR-8; test: NCI-60 SRB screen: ovarian cancer OVCAR-8; type: cell-based, human; details: OVCAR-8
[29] = tested on: NCI/ADR-RES; test: NCI-60 SRB screen: ovarian cancer NCI/ADR-RES; type: cell-based, human
[30] = tested on: HCT-15; test: NCI-60 SRB screen: colon cancer HCT-15; type: cell-based, human; details: HCT-15
[31] = tested on: MDA-MB-435; test: NCI-60 SRB screen: melanoma MDA-MB-435; type: cell-based, human; details: MDA-MB-435
[32] = tested on: MCF7; test: NCI-60 SRB screen: breast cancer MCF7; type: cell-based; details: Homo sapiens, 48 h, MCF7
[33] = tested on: MALME-3M; test: NCI-60 SRB screen: melanoma MALME-3M; type: cell-based, human; details: MALME-3M
[34] = tested on: MOLT-4; test: NCI-60 SRB screen: leukemia MOLT-4; type: cell-based; details: Homo sapiens, 48 h, MOLT-4
[35] = tested on: K-562; test: NCI-60 SRB screen: leukemia K-562; type: cell-based, human; details: K-562
[36] = tested on: ACHN; test: NCI-60 SRB screen: renal cancer ACHN; type: cell-based, human
[37] = tested on: SW-620; test: NCI-60 SRB screen: colon cancer SW-620; type: cell-based; details: Homo sapiens, 48 h, SW-620
[38] = Homo sapiens, five concentrations, 48 h, SRB, read-out: GI50
[39] = single dose 10 µM, read-out: Percentage Cell Growth
[40] = five concentrations, SRB, read-out: GI50

C=C(C)[C@@H]1CC[C@]2(C(=O)OC)CC[C@]3(C)[C@H](CC[C@@H]4[C@@]5(C)CCC(=NOCCC(=NOCCC#N)NCCC#N)C(C)(C)[C@@H]5CC[C@]43C)[C@@H]12 [Compound 21]
GI50 [1, 38]: 4.32 µM
Percentage Cell Growth ([1]; single dose 10 µM): 14.56%
Percentage Cell Growth ([2]; single dose 10 µM): 15.82%
GI50 [2, 38]: 5.27 µM
activity at 10 µM [3, 39]: 4.16%
GI50 [3, 40]: 2.89 µM
Percentage Cell Growth ([4]; single dose 10 µM): 27.53%
GI50 [4, 38]: 13.4 µM
activity at 10 µM ([5]; MDA-MB-231/ATCC, single dose 10 µM, read-out: Percentage Cell Growth): 5.09%
GI50 ([5]; MDA-MB-231, MDA-MB-31/ATCC, five concentrations, SRB, read-out: GI50): 10.3 µM
MID b, average sensitivity of all cell line of particular subpanel [6]: 4.90 µM
Selectivity, ratio MID a: MID b [6]: 2.09
activity at 10 µM ([7]; HT-29, 48 h, single dose 10 µM, read-out: Percentage Cell Growth): 3.88%
GI50 ([7]; HT-29, five concentrations, 48 h, SRB, read-out: GI50): 6.7 µM
Percentage Cell Growth ([8]; single dose 10 µM): −11.47%
GI50 [8, 38]: 6.42 µM
GI50 [9, 38]: 11.9 µM
Percentage Cell Growth ([9]; single dose 10 µM): 26.57%
Percentage Cell Growth ([10]; single dose 10 µM): 4.40%
GI50 [10, 38]: 11.3 µM
GI50 [11, 38]: 7.59 µM
Percentage Cell Growth ([11]; single dose 10 µM): 21.79%
GI50 [12, 38]: 5.17 µM
Percentage Cell Growth ([12]; single dose 10 µM): −34.55%
GI50 [13, 38]: 9.35 µM
Percentage Cell Growth ([13]; single dose 10 µM): 10.89%
GI50 [14, 38]: 21.4 µM
Percentage Cell Growth ([14]; single dose 10 µM): 36.56%
GI50 [15, 38]: 7.28 µM
Percentage Cell Growth ([15]; single dose 10 µM): −71.91%
GI50 [16, 38]: 4.77 µM
Percentage Cell Growth ([16]; single dose 10 µM): 53.13%
GI50 [17, 38]: 3.02 µM
Percentage Cell Growth ([17]; single dose 10 µM): −84.68%
GI50 [18, 38]: 2.32 µM
Percentage Cell Growth ([18]; single dose 10 µM): −25.76%
activity at 10 µM [19, 39]: 7.42%
GI50 [19, 40]: 11.7 µM
MID b, average sensitivity of all cell line of particular subpanel [20]: 11.39 µM
Selectivity, ratio MID a: MID b [20]: 0.89
GI50 [21, 38]: 5.43 µM
Percentage Cell Growth ([21]; single dose 10 µM): 2.42%
Percentage Cell Growth ([22]; single dose 10 µM): 18.52%
GI50 [22, 38]: 10.2 µM
Percentage Cell Growth ([23]; single dose 10 µM): 24.26%
GI50 [23, 38]: 30.2 µM
MID b, average sensitivity of all cell line of particular subpanel [24]: 7.83 µM
Selectivity, ratio MID a: MID b [24]: 1.31
GI50 [25, 38]: 5.35 µM
Percentage Cell Growth ([25]; single dose 10 µM): 8.82%
GI50 [26, 38]: 12.6 µM
Percentage Cell Growth ([26]; single dose 10 µM): 28.93%
activity at 10 µM ([27]; U-251, 48 h, single dose 10 µM, read-out: Percentage Cell Growth): -39.7%
GI50 ([27]; U-251, five concentrations, 48 h, SRB, read-out: GI50): 4.3 µM
GI50 [28, 38]: 9.66 µM
Percentage Cell Growth ([28]; single dose 10 µM): 13.17%
GI50 [29, 38]: 13.5 µM
Percentage Cell Growth ([29]; single dose 10 µM): 17.06%
Percentage Cell Growth ([30]; single dose 10 µM): 34.28%
GI50 [30, 38]: 5.77 µM
GI50 [31, 38]: 9.7 µM
Percentage Cell Growth ([31]; single dose 10 µM): 14.55%
activity at 10 µM [32, 39]: 12.4%
GI50 [32, 40]: 3.67 µM
GI50 [33, 38]: 11.8 µM
Percentage Cell Growth ([33]; single dose 10 µM): 25.27%
activity at 10 µM [34, 39]: -26.8%
GI50 [34, 40]: 2.52 µM
GI50 ([35]; Homo sapiens, K562, five concentrations, 48 h, SRB, read-out: GI50): 2.23 µM
Percentage Cell Growth ([35]; single dose 10 µM): 5.42%
GI50 [36, 38]: 10.5 µM
Percentage Cell Growth ([36]; single dose 10 µM): 13.94%
activity at 10 µM [37, 39]: 22%
GI50 [37, 40]: 4.45 µM
